Test: Thermodynamic solubility of regorafenib monohydrate in different solvents
Format: physicochemical
Settings: thermodynamic from solid
From the text: Regorafenib monohydrate has a limited solubility profile.

Measured: solubility

CNC(=O)c1cc(Oc2ccc(NC(=O)Nc3ccc(Cl)c(C(F)(F)F)c3)c(F)c2)ccn1 [regorafenib monohydrate, 4-{4-[({[4-chloro-3-(trifluoromethyl)phenyl]amino}carbonyl)amino]-3-fluorophenoxy}-N-methylpyridine-2-carboxamide]
< 100 µg/mL: aqueous with cosolvent or surfactant or cyclodextrin, solvent HPβ-Cyclodextrin/water (10:90) | oil or lipid, solvent Light liquid paraffin | solvent Water
